This note sets out measurements from patent US10633416B2 (BGI SHENZHEN CO., LIMITED, priority 2014, dated 2020).

The experiment has as its system potassium ion channel current of the DRG neurons. The class given is cell-based, SD rats. As to conditions: 5 mM.

As to `Nc1ccncc1` [4AP, 4-aminopyridine], the Current inhibition rate was 0.338 and the “Current recorded after loading” value came out at 0.9766 nA.
